Experimental data: patent publication US11739087B2, “Inhibiting (α-v)(β-6) integrin” (Morphic Therapeutic, Inc., priority 2018, dated 2023)

Assays:
[1] = MDCK permeability assay, wild type MDCK cells with no inhibitor (A→B); type: in vitro ADME, Canine; conditions: dog, no Pgp inhibitor, apical to basolateral
Method: (§1) Compounds were tested for permeability in an MDCK permeability assay. This assay measures the ability of compounds to cross a layer of Madin-Darby Canine Kidney (MDCK) cells from the apical to basolateral side (A→B). This measurement is predictive of the ability of compounds to be absorbed in the gut following oral dosing, an essential characteristic of an orally administered small molecule integrin inhibitor drug.
(§2) The assay is run in two formats. One uses wild type MDCK cells with no inhibitor. This method works well in determining the passive permeability of compounds with low efflux by P-glyocprotein (Pgp), and was used to assess permeability of a Reference Compound having the chemical formula shown below.
(§3) Cell Culture and Maintenance: • Cell stock cultures (MDCK or MDCK MDR1) are maintained in MEM+10% FBS+1% NEAA, grown in 75 cm^2 tissue culture treated flasks and split (passed) 2 times weekly to maintain desired confluence. • For maintenance passage: trypsinized cells are routinely distributed into new flasks at a standard passage ratio of 1:20.
(§4) Seeding assay plates: MDCK assay plates are seeded with MDCK or MDCK MCR1 cells 3-4 days prior to running the assay. 24-well plates are seeded at a cell density of 0.88×10^5/well in a 400 μL apical chamber volume (2.2×10^5/mL) with a […] volume of growth medium to the 24-well basal chamber. […]

[2] = system: Madin-Darby Canine Kidney (MDCK) cells; assay: as above; type: in vitro ADME; conditions: no Pgp inhibitor, apical to basolateral
Method: as §1, §2, §3, §4

O=C(O)CN1CCC(C(=O)N2CCC(c3ccc4c(n3)NCCC4)CC2)CC1 [Reference Compound]
Papp A→B at 90 min, 5 μM [1]: < 0.23 ×10⁻⁶ cm/s | MDCK (A −> B) [2]: less than 0.23
